The values that follow come from patent publication US20260200850A1, “CRYSTALLINE FORMS OF A PIPERIDINE INHIBITOR OF SLC6A19 FUNCTION” (Jnana Therapeutics Inc., priority 2022, published 2026).

A short description of this series: Solubility measurements of polymorphic Form I and II in biorelevant fluids. In kind it is physicochemical. The note with it: for solubility at 1.5 h / solubility at 3 h / solubility at 24 h: thermodynamic from solid. The text has this: Example 3: Solubility Measurements of Form I and Form II

Values after ≈ are worked out from the molar mass of the structure shown.

`NC(=O)N1CCC[C@@H](N(C(=O)NCc2ccc(OC(F)(F)F)cc2F)C2CC2)C1` [Form I, (R)-3-(1-cyclopropyl-3-(2-fluoro-4-(trifluoromethoxy)benzyl)ureido) piperidine-1-carboxamide]: the solubility (in general, how much of the substance goes into solution per volume) at 1.5 h reads like this: (5% HPBCD/2% TPGS, 25 °C, aqueous with cosolvent or surfactant or cyclodextrin, 1.5 h) 4960 µg/mL (≈ 11900 µM); (FaSSIF, 37 °C, 1.5 h) 360 µg/mL (≈ 860 µM); (SGF, 37 °C, simulated gastric fluid, 1.5 h) 400 µg/mL (≈ 956 µM). Further, the solubility at 3 h reads like this: (5% HPBCD/2% TPGS, 25 °C, aqueous with cosolvent or surfactant or cyclodextrin, 3 h) 5110 µg/mL (≈ 12200 µM); (FaSSIF, 37 °C, 3 h) 380 µg/mL (≈ 908 µM); (SGF, 37 °C, simulated gastric fluid, 3 h) 420 µg/mL (≈ 1000 µM). Moreover, the solubility at 24 h reads like this: (5% HPBCD/2% TPGS, 25 °C, aqueous with cosolvent or surfactant or cyclodextrin, 24 h) 5280 µg/mL (≈ 12600 µM); (FaSSIF, 37 °C, 24 h) 350 µg/mL (≈ 837 µM); (SGF, 37 °C, simulated gastric fluid, 24 h) 370 µg/mL (≈ 884 µM). In addition, the Solubility – broadly, how much of the substance goes into solution per volume – stood at 910 µg/mL (≈ 2170 µM) (FeSSIF, 37° C., 1.5 h); 900 µg/mL (≈ 2150 µM) (FeSSIF, 37° C., 3 h); 980 µg/mL (≈ 2340 µM) (FeSSIF, 37° C., 24 h). In addition, for the setting “relevant biofluids, in words”, the “Solubility, comparison of the forms” value is given as “increased solubility relative to Form II”.

Molecule `NC(=O)N1CCC[C@@H](N(C(=O)NCc2ccc(OC(F)(F)F)cc2F)C2CC2)C1` [Form II, (R)-3-(1-cyclopropyl-3-(2-fluoro-4-(trifluoromethoxy)benzyl)ureido) piperidine-1-carboxamide] registered a Solubility (5% HPBCD/2% TPGS, 25° C., 1.5 h) of 4310 µg/mL (≈ 10300 µM); a Solubility (5% HPBCD/2% TPGS, 25° C., 3 h) of 4270 µg/mL (≈ 10200 µM); a Solubility (5% HPBCD/2% TPGS, 25° C., 24 h) of 4760 µg/mL (≈ 11400 µM); a Solubility (FaSSIF, 37° C., 1.5 h) of 310 µg/mL (≈ 741 µM); a Solubility (FaSSIF, 37° C., 3 h) of 270 µg/mL (≈ 645 µM); a Solubility (FaSSIF, 37° C., 24 h) of 240 µg/mL (≈ 574 µM). Further, the Solubility runs as follows: (SGF, 37° C., 1.5 h) 260 µg/mL (≈ 621 µM); (SGF, 37° C., 3 h) 270 µg/mL (≈ 645 µM); (SGF, 37° C., 24 h) 300 µg/mL (≈ 717 µM). The same molecule displayed a solubility at 1.5 h (FeSSIF, 37 °C, 1.5 h) of 740 µg/mL (≈ 1770 µM). For the same molecule, the concentration in solution (FeSSIF, 37 °C, 3 h) (solubility at 3 h) was 720 µg/mL (≈ 1720 µM). For the same molecule, the solubility at 24 h (FeSSIF, 37 °C, 24 h) turned out to be 720 µg/mL (≈ 1720 µM).
